The values below come from patent US20230416830A1, “METHODS AND COMPOSITIONS FOR PREDICTING AND TREATING UVEAL MELANOMA” (INSERM (INSTITUT NATIONAL DE LA SANTÉ ET DE LA RECHERCHE …, priority 2020, published 2023).

Holding throughout (format): cell-based, human
Experiment [1] concerns 92.1 primary uveal melanoma cells. Put plainly: 3D spheroid (melanosphere) assay of 92.1 cells. As to conditions: 96 h. From the text: FIG. 8: HES6 knockdown inhibits uveal melanoma anchorage-dependent and—independent cell growth. (A) Q-RT-PCR showing HES6 level in OMM2.5 metastatic melanoma cells transfected with a control siRNA (siCtl) or two different pools of multiple siRNA targeting HES6 (siHES6#1 and siHES6#2). (B-C) Colony formation assay of OMM2.5 and OMM1 metastatic uveal melanoma cells treated with control siRNA or with two different pools of multiple siRNA targeting HES6 (siHES6#1 and siHES6#2). Representative images are shown. (D) 92.1 primary uveal melanoma cells expressing doxycycline-inducible control or two different HES6 shRNA in presence of 1 μg/ml doxycycline for 72 hrs. Efficiency is shown by RT-QPCR. ***p<0.001 (E) Colony formation assay of 92.1 primary uveal melanoma cells expressing doxycycline-inducible control or two different HES6 shRNA. Representative images are shown. Crystal violet was next dissolved and measured at 490 nm. ***p<0.001. (F) 3D spheroid assays of 92.1 cells expressing doxycycline-inducible control or HES6 shRNA in presence of 1 μg/ml doxycycline for 96 hrs. Surface of the imaged spheroid area was determined. ***p<0.001. Representative images are shown.
FIG. 9: NOTCH signaling controls uveal melanoma cell growth and migration. […] Surface of the imaged spheroid area was determined. ***p<0.001. […]

The subject of experiment [2] is NOTCH reporter activity. Put plainly: NOTCH reporter vector assay in OMM1 uveal melanoma cells. The protocol: (§1) FIG. 9: NOTCH signaling controls uveal melanoma cell growth and migration. (A) OMIVI1 uveal melanoma cells were transfected with the NOTCH reporter vector before being treated or not with DLL4 1μg/ml in absence or presence of BMS-906024 10 μM. Data shown are mean +SD of three experiments. ***p<0.001 and *p<0.05. (B) 3D spheroid assays of 92.1 cells exposed to DAPT 10μg/ml or BMS-906024 lOpM for 96 h. Surface of the imaged spheroid area was determined. ***p<0.001. Representative images are shown. (C) Boyden chambers experiments with 92.1 cells treated or not with DLL4 1 μg/ml. Data shown are mean+SD of three experiments. **p<0.01. Representative images are shown.
Human uveal melanoma cell lines Me127051, 92.152, OMM2.551 were grown in RPMI glutamax supplemented with 10% FBS, OMM153 were grown in DMEM glutamax supplemented with Sodium Pyruvate 1%, MEM Essential Vitamin Mixture 1%, NEAA 1%, Hepes 1%, 10% FBS, MP46, MP65 (from ATCC) were grown in DMEM/F12 w/Glutamine 10% FBS, Glutamax 2mM, Insulin-Transferin-Selenium 0.5x at 37° C. in a humidified atmosphere containing 5% CO2. LipofectamineTM RNAiMAX and opti-MEM medium were purchased from Invitrogen (San Diego, CA, USA). BMS-906024 (#BM0018) and DAPT (#5942) were obtained from Sigma, DLL4 from R&D systems (#1506-D4-050).

The test system of experiment [3] is 92.1 cells. The experiment in a line: Boyden chamber migration of 92.1 cells. As to conditions: DLL4 1 μg/ml. As for the experimental part: as §1
FIG. 11: HES6 inhibition impairs metastatic uveal melanoma cells motile ability. Migration of 92.1 cells expressing doxycycline-inducible control or HES6 shRNA in presence of 1 μg/ml doxycycline for 48 hrs in presence or absence of DLL4 1 μg/ml. ***p<0.001. Representative images are shown.
Cell migration was assessed using a modified Boyden chamber assay with 8-μm pore filter inserts for 24-well plates (BD Bioscience). Cells were seeded on the upper chamber of a trans-well and DMEM 7% FBS placed into the lower chamber. Cells adherent to the underside of the filters were fixed with 4% PFA, stained with 0.4% crystal violet and five random fields at x20 magnification were counted. […]

The subject of experiment [4] is Me1270 primary uveal melanoma cells. The experiment in a line: Migration of Me1270 cells. As to conditions: Me1270 cells expressing doxycycline-inducible HES6 shRNA, doxycycline 1 μg/ml 48 hrs, DLL4 1 μg/ml. From the text:
FIG. 6: HES6 expression in primary uveal melanomas controls the motile ability. (A) Relative expression of HES/HEY gene family (TCGA dataset). (B) Human primary uveal Me1270 melanoma cells were transfected with a control siRNA (siCtl) or two different pools of multiple siRNA targeting HES6 (siHES6#1 and siHES6#2). siRNA efficacy is shown by RT-QPCR. (C) Migration Me1270 cells transfected with the indicated siRNA. ***p<0.001. Representative images are shown. (D) Colony formation assay of Me1270 cells transfected with the indicated siRNA. ***p<0.001. Representative images are shown.
FIG. 10: HES6 signaling is a key driver of aggressive and motile phenotypes. Migration of Me1270 cells expressing doxycycline-inducible control or HES6 shRNA in presence of 1 μg/ml doxycycline for 48 hrs in presence or absence of DLL4 1 *g/ml. ***p<0.001. Representative images are shown.
Briefly, a single pulse of 50 nM of HES6 siRNA (Dharmacon L-008408-00-0005 and […]
Cell migration was assessed using a modified Boyden chamber assay with 8-μm pore filter inserts for 24-well plates (BD Bioscience). […] Cells adherent to the underside of the filters were fixed with 4% PFA, stained with 0.4% crystal violet and five random fields at x20 magnification were counted. […]

For the compound `O=C(O)CN(CC(=O)O)CC(O)CN(CC(=O)O)CC(=O)O` [DAPT, diaminopropanol tetraacetic acid], the “melanosphere formation (surface of spheroid area)” value in experiment [1] (DAPT 10μg/ml) is on record as “reduced”.

In the case of `CN1C(=O)[C@@H](NC(=O)[C@H](CCC(F)(F)F)[C@H](CCC(F)(F)F)C(N)=O)N=C(c2ccccc2)c2ccccc21` [BMS-906024, reference compound], the “effect on DLL4-increased NOTCH reporter activity” value in experiment [2] (DLL4 1μg/ml in presence of BMS-906024 10 μM) is on record as “inhibited”. For the same compound, in experiment [1] (BMS-906024 lOpM), the “melanosphere formation (surface of spheroid area)” value is listed as “reduced”.

Regarding “DLL4: Delta-like ligand 4, NOTCH natural ligand, from R&D systems (#1506-D4-050)”, in experiment [2] (DLL4 1μg/ml), the NOTCH reporter activity result is “increased”. The “migration in HES6 knockdown cells” value in experiment [3] (92.1 cells expressing doxycycline-inducible HES6 shRNA, doxycycline 1 μg/ml 48 hrs) is given as “could no longer increased migration”; in experiment [4], “could no longer increased migration”. Besides, in experiment [3] (92.1 cells), the “uveal melanoma cell migration” value is “enhanced”.
